This is an account of results in patent US7029857B1, “Processes for obtaining compounds employing SNORF72 receptors” (H. Lundbeck A/S, priority 1999, dated 2006).

For assay [1], the target named is T1, SNORF72 (Homo sapiens, UniProt Q9GZQ4, A395T).
T1 construct: expressed in transfected cells; host or cells: COS-7 (transient, DEAE-dextran)
Nature of the assay: Saturation binding of radioligands to SNORF72-transfected COS-7 membranes. The note with it: two values n=2. As to the method:
COS-7 cells were transiently transfected with SNORF72 and membranes were prepared as described in Materials and Methods. […] Results presented are representative of 2 experiments performed in duplicate.
(§1) Cell membranes expressing the receptor protein of this invention are useful for certain types of assays including but not restricted to ligand binding assays, GTP-γ-S binding assays, and others. The specifics of preparing such cell membranes may in some cases be determined by the nature of the ensuing assay but typically involve harvesting whole cells and disrupting the cell pellet by sonication in ice cold buffer (e.g. 20 mM Tris HCl, mM EDTA, pH 7.4 at 4° C.). The resulting crude cell lysate is cleared of cell debris by low speed centrifugation at 200×g for 5 min at 4° C. […] Protein concentrations are determined by the method of Bradford (1976) using bovine serum albumin as a standard. […]
(§2) Radioligand binding assays were performed by diluting membranes prepared from cells expressing the receptor in 50 mM Tris buffer (pH=7.4 at 0° C.) containing 0.1% bovine serum albumin (Sigma), aprotinin (0.005 mg/ml, Boehringer Mannheim) and bestatin (0.1 mM, Sigma) as protease inhibitors. […] After addition of Ready Safe (Beckman) scintillation fluid, bound radioactivity was quantitated using a Trilux (Wallac) scintillation counter (approximately 40% counting efficiency of bound counts). […]

The target in assay [2] is T2, SNORF62 (Homo sapiens, UniProt Q9HB89).
T2 sequence (Q9HB89 1-426): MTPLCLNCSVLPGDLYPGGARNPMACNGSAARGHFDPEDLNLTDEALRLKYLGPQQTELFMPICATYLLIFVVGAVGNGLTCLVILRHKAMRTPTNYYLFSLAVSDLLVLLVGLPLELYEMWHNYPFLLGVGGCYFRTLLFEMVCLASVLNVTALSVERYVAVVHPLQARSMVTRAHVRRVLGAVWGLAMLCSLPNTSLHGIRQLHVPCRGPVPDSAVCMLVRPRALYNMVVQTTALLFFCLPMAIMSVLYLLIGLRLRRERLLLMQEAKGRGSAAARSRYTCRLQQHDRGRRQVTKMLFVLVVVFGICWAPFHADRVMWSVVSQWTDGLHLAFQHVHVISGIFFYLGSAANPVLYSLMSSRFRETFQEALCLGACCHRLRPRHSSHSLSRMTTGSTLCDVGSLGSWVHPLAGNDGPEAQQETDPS
Nature of the assay: Saturation binding of radioligands to SNORF62-transfected COS-7 membranes. The arrangement: The SNORF62 cDNA codes for a protein of 426 amino acids; expressed in transfected cells; host or cells: COS-7 (transient, DEAE-dextran). The note with it: two values n=2. As for the experimental part: COS-7 cells were transiently transfected with SNORF62 and membranes were prepared as described in Materials and Methods. […] Results are representative of 2 experiments performed in duplicate.
as §1, §2

Assay [3] addresses T1, SNORF72. In words: Intracellular Ca2+ release (FLIPR) in SNORF72-transfected COS-7 cells. Format: cell-based. The note with it: SNORF72-transfected COS-7 cells, peptides at 300 nM (FIG. 8).
Assay [4] concerns the target T3, rat SNORF72 (Rattus norvegicus, UniProt Q9ESQ4).
T3 construct: corresponding to a predicted protein of 395 amino acids; expressed in transfected cells; host or cells: COS-7 (transient)
In words: Intracellular Ca2+ release (FLIPR) in rat SNORF72-transfected COS-7 cells. Format: cell-based. The note with it: FIG. 22 at 100 nM. As for the experimental part:
A typical protocol for the DEAE-dextran method as applied to COS-7 and HEK293 cells is described as follows. Cells to be used for transfection are split 24 hours prior to the transfection to provide flasks which are 70–80% confluent at the time of transfection. Briefly, 8 μg of receptor DNA plus 8 μg of any additional DNA needed (e.g. Gα protein expression vector, reporter construct, antibiotic resistance marker, mock vector, etc.) are added to 9 ml of complete DMEM plus DEAE-dextran mixture (10 mg/ml in PBS). Cells plated into a T225 flask (sub-confluent) are washed once with PBS and the DNA mixture is added to each flask. The cells are allowed to incubate for 30 minutes at 37° C., 5% CO2. Following the incubation, 36 ml of complete DMEM with 80 μM chloroquine is added to each flask and allowed to incubate an additional 3 hours. […]
In another method, the measurement of intracellular Ca^2+ can also be performed on a 96-well (or higher) format and with alternative Ca^2+-sensitive indicators, preferred examples of these are: aequorin, Fluo-3, Fluo-4, Fluo-5, Calcium Green-1, Oregon Green, and 488 BAPTA. After activation of the receptors with agonist ligands the emission elicited by the change of intracellular Ca^2+ concentration can be measured by a luminometer, or a fluorescence imager; a preferred example of this is the fluorescence imager plate reader (FLIPR™, Molecular Devices). […]

Assay [5] addresses T1, SNORF72. In words: Displacement of [125I]rat NMU-23 binding in SNORF72-transfected COS-7 membranes. The note with it: SNORF72 membranes, displacement of [125I]rat NMU-23; read-out: average pKi (converted). As for the experimental part: (§3) The specifics of preparing such cell membranes may in some cases be determined by the nature of the ensuing assay but typically involve harvesting whole cells and disrupting the cell pellet by sonication in ice cold buffer (e.g. 20 mM Tris HCl, mM EDTA, pH 7.4 at 4° C.). The resulting crude cell lysate is cleared of cell debris by low speed centrifugation at 200×g for 5 min at 4° C. The cleared supernatant is then centrifuged at 40,000×g for 20 min at 4° C., and the resulting membrane pellet is washed by suspending in ice cold buffer and repeating the high speed centrifugation step. The final washed membrane pellet is resuspended in assay buffer. Protein concentrations are determined by the method of Bradford (1976) using bovine serum albumin as a standard. The membranes may be used immediately or frozen for later use.
(§4) Radioligand binding assays were performed by diluting membranes prepared from cells expressing the receptor in 50 mM Tris buffer (pH=7.4 at 0° C.) containing 0.1% bovine serum albumin (Sigma), aprotinin (0.005 mg/ml, Boehringer Mannheim) and bestatin (0.1 mM, Sigma) as protease inhibitors. The final protein concentration in the assay was 12–40 μg/ml. […] The bound ligand was separated from free by filtration through GF/B filters presoaked in 0.5% polyethyleneimine (PEI), using a Tomtec (Wallac) vacuum filtration device. After addition of Ready Safe (Beckman) scintillation fluid, bound radioactivity was quantitated using a Trilux (Wallac) scintillation counter (approximately 40% counting efficiency of bound counts). Data was fit to non-linear curves using GraphPad Prism.
(§5) In this manner, agonist or antagonist compounds that bind to the receptor may be identified as they inhibit the binding of the labeled ligand to the membrane protein of cells expressing the said receptor. Non-specific binding was defined as the amount of radioactivity remaining after incubation of membrane protein in the presence of 100 nM of the unlabeled peptide corresponding to the radioligand used. In equilibrium saturation binding assays membrane preparations or intact cells transfected with the receptor are incubated in the presence of increasing concentrations of the labeled compound to determine the binding affinity of the labeled ligand.
A general note: In a radioligand displacement assay an active substance lowers the binding of a labelled ligand.

The subject of assay [6] is rat uterus membranes. The note with it: binding site in rat uterus; cited from earlier work.
Assay [7] concerns isolated rat uterus preparations. The note with it: read-out: EC50 concentration for contraction; cited from earlier work.
Assay [8] relates to isolated rat inner adrenocortical cells. The note with it: absence of medullary cells; cited from earlier work.
The target in assay [9] is T2, SNORF62. Nature of the assay: Intracellular Ca2+ release (FLIPR) in SNORF62-transfected COS-7 cells. Type of assay: cell-based. Also on record: The SNORF62 cDNA codes for a protein of 426 amino acids; expressed in transfected cells; host or cells: COS-7 (transient, DEAE-dextran).
The target of assay [10] is T2, SNORF62. In words: Displacement of [125I]rat NMU-23 binding in SNORF62-transfected COS-7 membranes. The arrangement: The SNORF62 cDNA codes for a protein of 426 amino acids; expressed in transfected cells; host or cells: COS-7 (transient, DEAE-dextran). The note with it: SNORF62 membranes, displacement of [125I]rat NMU-23; read-out: average pKi (converted). As to the method:
as §3, §4, §5

Assay [11] has as its target T2, SNORF62. In words: Inositol phosphate (IP) release in SNORF62-transfected COS-7 cells. Type of assay: cell-based. The arrangement: The SNORF62 cDNA codes for a protein of 426 amino acids; expressed in transfected cells; host or cells: COS-7 (transient, DEAE-dextran).
Experimental: Human SNORF62 receptor-mediated activation and human SNORF72 receptor-mediated activation of the inositol phosphate (IP) second messenger pathways were assessed by radiometric measurement of IP products.
For example, in a 96 well microplate format assay, COS-7 cells expressing the receptor of interest were plated at a density of 70,000 cells per well and allowed to incubate for 24 hours. The cells were then labeled with 0.5 μCi [^3H]myo-inositol overnight at 37° C., 5% CO2. Immediately before the assay, the medium was removed and replaced with 180 μL of Phosphate-Buffered Saline (PBS) containing 10 mM LiCl. The plates were then incubated for 20 min at 37° C., 5% CO2. Following the incubation, the cells were challenged with agonist (20 μl/well; 10× concentration) for 30 min at 37° C. The challenge was terminated by the addition of 100 μL of 5% v/v trichloroacetic acid, followed by incubation at 4° C. for greater than 30 minutes. Total IPs were isolated from the lysate by ion exchange chromatography. Briefly, the lysed contents of the wells were transferred to a Multiscreen HV filter plate (Millipore) containing Dowex AG1-X8 (200–400 mesh, formate form). The filter plates were prepared adding 100 μL of Dowex AG1-X8 suspension (50% v/v, water: resin) to each well. The filter plates were placed on a vacuum manifold to wash or elute the resin bed. Each well was first washed 2 times with 200 μl of 5 mM myo-inositol. Total [^3H]inositol phosphates were eluted with 75 μl of 1.2M ammonium formate/0.1M formic acid solution into 96-well plates. 200 μL of scintillation cocktail was added to each well, and the radioactivity was determined by liquid scintillation counting.

Where “and” joins values, the source holds several entries; their conditions need not be identical. Identical values can stand only once. No end group written: not given here.

T1 sequence (Q9GZQ4 whole entry A395T): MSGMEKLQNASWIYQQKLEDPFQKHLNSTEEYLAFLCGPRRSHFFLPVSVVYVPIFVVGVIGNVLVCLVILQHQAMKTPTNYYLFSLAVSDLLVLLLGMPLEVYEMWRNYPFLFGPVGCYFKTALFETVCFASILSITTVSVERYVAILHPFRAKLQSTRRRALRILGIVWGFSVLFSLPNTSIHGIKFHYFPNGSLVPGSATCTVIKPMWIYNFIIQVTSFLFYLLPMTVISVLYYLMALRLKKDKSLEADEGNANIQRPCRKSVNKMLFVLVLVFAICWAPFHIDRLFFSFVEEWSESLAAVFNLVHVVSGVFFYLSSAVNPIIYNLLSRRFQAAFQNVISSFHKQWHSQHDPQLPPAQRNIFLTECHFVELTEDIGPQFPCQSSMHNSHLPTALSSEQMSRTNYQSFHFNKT
T3 sequence (Q9ESQ4 whole entry): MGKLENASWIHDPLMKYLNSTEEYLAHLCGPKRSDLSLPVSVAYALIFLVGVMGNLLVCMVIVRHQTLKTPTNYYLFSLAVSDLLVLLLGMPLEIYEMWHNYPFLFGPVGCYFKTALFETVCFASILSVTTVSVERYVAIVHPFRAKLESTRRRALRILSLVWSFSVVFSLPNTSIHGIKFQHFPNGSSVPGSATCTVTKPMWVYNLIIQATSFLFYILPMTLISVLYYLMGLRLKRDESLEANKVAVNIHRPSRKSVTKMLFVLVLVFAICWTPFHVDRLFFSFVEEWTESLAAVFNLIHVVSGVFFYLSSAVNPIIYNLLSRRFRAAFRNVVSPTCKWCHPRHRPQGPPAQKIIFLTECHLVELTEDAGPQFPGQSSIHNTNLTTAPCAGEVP

“[^125I]rat NMU-23: radioiodinated rat NMU-23 radioligand (NEN, specific activity 2200 Ci/mmole) (YKVNEYQGPVAPSGGFFLFRPRN-NH2; ends and bridges not checked; also: radioiodinated (125I), position not given here)”: the Bmax in assay [1] was 8.0 pmol/mg protein and 8.2 pmol/mg protein; in [2] it was 16.5 pmol/mg protein and 9.9 pmol/mg protein.

The IC50 is the concentration that gives 50% inhibition. As for “YKVNEYQGPVAPSGGFFLFRPRN-NH2 [rat NMU-23, YKVNEYQGPVAPSGGFFLFRPRN—NH2]”, the “stimulation of intracellular Ca2+ release” value in [3] is listed as “stimulated”. Also, in [4], the “increases in intracellular Ca2+” value is reported as “robust increases”. Also, the results for the Ki in [5] and in assay [10] were 1 nM and 0.398 nM, respectively. The IC50 in [6] was 1 nM. For the same substance, the EC50 in [7] is 0.2 nM; in assay [9] (stimulation of Ca2+ release, SNORF62-transfected COS-7 cells, n = 2-7 (Table 1A)) it was 2.1 ± 0.5 nM. Further, the basal corticosterone secretion result in assay [8] was “directly decreased”. Also, in assay [9] (functional assay, data not shown), the “maximum response / agonist efficacy at SNORF62” value is “full agonists”. Besides, the “agonist efficacy in IP release assay” value in assay [11] is “full agonists”.
